From US20260158050A1, “USE OF EIDD-1931 OR DERIVATIVE THEREOF IN TREATMENT OF ENTEROVIRUS INFECTION” (ACADEMY OF MILITARY MEDICAL SCIENCES, priority 2022, published 2026)

What was measured:
[1] = system: EV-A71; experiment: infectious virus particle formation in supernatant (TCID50 detection); type: cell-based; conditions: supernatant of RD cells, TCID50 (FIG. 3 A and C)
[2] = system: Huh7 cells; experiment: cytotoxicity test on Huh7 cells; type: cell-based, Human; conditions: 3 days
Method: (§1) Human liver tumor cells (Huh7 cells) used in the experiment were purchased from Chinese National Infrastructure of Cell Line Resource. Human […] cells (RD cells) and African green monkey kidney cells (Vero cells) were purchased from ATCC (Cat. No.: CCL-136 and CCL-81, respectively). The above cells were cultured in a cell culture incubator at 37° C. and 5% CO2. The complete culture medium used for cell growth was DMEM high-glucose culture medium (purchased from Gibco, Cat. […] No.: 16000044) and penicillin-streptomycin (purchased from Gibco, Cat. No.: 2321152). The maintenance culture medium used for cell culture was DMEM high-glucose culture medium supplemented with 2% FBS and penicillin-streptomycin. H strain of EV-A71 was purchased from ATCC (Cat. No.: VR-1432). […] The microplate reader, model Spectra Max M5, was purchased from Molecular Devices. […] Finally, the luminescence value of each well was measured using the microplate reader. The inhibition rate of the test compounds at each dilution was calculated as follows: [formula] […] The half-cytotoxic concentrations (CC50) of the test compounds were calculated using the same method, and the select index (SI) was calculated based on EC50 and CC50: SI=CC50/EC50.

[3] = system: EV-A71; experiment: time series experiment, intracellular viral RNA load in RD cells; type: cell-based; conditions: 10 μM, 0.01 MOI (FIG. 5)
Method: The specific steps were as follows: RD cells were seeded in a 12-well plate at a density of about 4.0×10^5 per well and cultured at 37° C. and 5% CO2 for 24 hours. Subsequently, the test compound EIDD-1931, the positive compound NITD008 and the EV-A71 virus were diluted to the corresponding concentrations with the cell maintenance medium, and then the pre-diluted compound or virus was added at the time point as shown in A in FIG. 5. After 30 hours of continuous culture, the cell supernatant was discarded, the intracellular RNA was extracted, and the intracellular viral RNA load was detected by qRT-PCR. The intracellular RNA extraction method and qRT-PCR system and reaction conditions were the same as described above.

[4] = system: Vero cells; experiment: cytotoxicity test on Vero cells; type: cell-based, African green monkey; conditions: 3 days
Method: as §1

[5] = system: EV-A71 H strain; experiment: protection against cytopathic effect (CPE) caused by EV-A71, Cell-Titer Glo; type: cell-based; conditions: for EC50: EV-A71 H strain, 3 days; for inhibition of the cytopathic effect caused by the virus: multiple cell lines infected with EV-A71 (FIG. 2)
Method: Human liver tumor cells (Huh7 cells) used in the experiment were purchased from Chinese National Infrastructure of Cell Line Resource. Human […] cells (RD cells) and African green monkey kidney cells (Vero cells) were purchased from ATCC (Cat. No.: CCL-136 and CCL-81, respectively). The above cells were cultured in a cell culture incubator at 37° C. and 5% CO2. The complete culture medium used for cell growth was DMEM high-glucose culture medium (purchased from Gibco, Cat. […] No.: 16000044) and penicillin-streptomycin (purchased from Gibco, Cat. No.: 2321152). The maintenance culture medium used for cell culture was DMEM high-glucose culture medium supplemented with 2% FBS and penicillin-streptomycin. H strain of EV-A71 was purchased from ATCC (Cat. No.: VR-1432). Compounds EIDD-1931 and EIDD-2801 were purchased from Shanghai Topscience Biochemical Technology Co., Ltd. (Cat Nos: […] and […], respectively), and their structures were shown in FIG. 1. Cell-Titer Glo® Luminescent Cell Viability Assay Solution was purchased from Promega (Cat. No.: G7572). The microplate reader, model Spectra Max M5, was purchased from Molecular Devices. Huh7 cells, RD cells, and Vero cells were seeded into a 96-well plate with a white wall and a transparent bottom at a density of about 1.0×10^4 per well and cultured at 37° C. and 5% CO2 for 24 hours. Then, the EV-A71 virus was diluted with cell maintenance solution and added to the 96-well plate to reach a final concentration of 100TCID50. […] After 3 days, the supernatant was discarded, and the diluted Cell-Titer Glo® Luminescent Cell Viability Assay Solution was added. The cells were shaken and lysed for 5 minutes in the dark, and then allowed to stand for 3 minutes. Finally, the luminescence value of each well was measured using the microplate reader. The formula for calculating the inhibition rate of the test compounds against virus was: [formula] Origin9.0 software was used to fit the inhibition rate-concentration S-shaped curve and calculate the half-maximal effective concentrations (EC50) of the test compounds. The half-cytotoxic concentrations (CC50) of the test compounds were calculated using the same method, and the select index (SI) was calculated based on EC50 and CC50: SI=CC50/EC50.

[6] = system: EV-A71 AH08/06; experiment: CPE protection, EV-A71 AH08/06 strain; type: cell-based; conditions: EV-A71 AH08/06, RD cells
[7] = system: EV-A71 RNA; experiment: inhibition of EV-A71 viral RNA replication (qRT-PCR) in RD cells; type: cell-based; conditions: 0.1 MOI, 30 hours (FIG. 3 B and D)
[8] = system: CV-B3 Nancy; experiment: CPE protection, CV-B3 Nancy strain; type: cell-based; conditions: for EC50: CV-B3 Nancy, Vero cells
[9] = system: EV-A71; experiment: EV-A71 viral load in ICR suckling mice tissues (qRT-PCR); type: in vivo; conditions: 200 mg/kg intraperitoneally once per day, 4th day (FIG. 7)
[10] = system: MERS-CoV or SARS-CoV; conditions: mice, cited from earlier work

O=c1nc(NO)ccn1[C@@H]1O[C@H](CO)[C@@H](O)[C@H]1O [EIDD-1931]
inhibition of production of infectious viral particles [1]: inhibited
CC50 [2]: 34.09 ± 0.06 µM
inhibition on the adsorption and entry of the virus [3]: no obvious inhibition
stage of virus infection at which the antiviral effect is exerted [3]: viral replication stage
CC50 [4]: 14.1 ± 0.43 µM
EC50 ([5]; Huh7 cells): 4.43 ± 0.33 µM
EC50 ([5]; RD cells): 5.13 ± 0.56 µM
EC50 ([5]; Vero cells): 7.04 ± 0.38 µM
SI (CC50/EC50) ([5]; Huh7 cells): 7.69
SI (CC50/EC50) ([5]; RD cells): 15.69
SI (CC50/EC50) ([5]; Vero cells): 2.0
inhibition of the cytopathic effect caused by the virus [5]: dose-dependently inhibit
EC50 [6]: 2.79 ± 0.89 µM
inhibition of replication of EV-A71 RNA [7]: dose-dependently inhibited
EC50 [8]: 3.65 ± 0.82 µM
viral loads in tissues or organs (brain, heart, small intestine, liver, hind limb muscle, lung) [9]: significantly reduced

CC(C)C(=O)OC[C@H]1O[C@@H](n2cc/c(=N\O)[nH]c2=O)[C@H](O)[C@@H]1O [EIDD-2801]
inhibition of production of infectious viral particles [1]: inhibited
CC50 [2]: > 100 µM
CC50 [4]: > 100 µM
lung damage caused by MERS-CoV or SARS-CoV infections ([10]; preventive use): prevent lung damage
degree of lung damage and weight loss ([10]; therapeutic use within 12 hours or 24 hours after infection): significantly reduce
EC50 ([5]; Huh7 cells): 35.6 ± 0.47 µM
EC50 ([5]; RD cells): 70.1 ± 4.4 µM
EC50 ([5]; Vero cells): 88.5 ± 3.18 µM
SI (CC50/EC50) ([5]; Huh7 cells): > 2.81
SI (CC50/EC50) ([5]; RD cells): > 1.43
SI (CC50/EC50) ([5]; Vero cells): > 1.13
inhibition of the cytopathic effect caused by the virus [5]: dose-dependently inhibit
EC50 [6]: 30.3 ± 0.55 µM
inhibition of replication of EV-A71 RNA [7]: dose-dependently inhibited
inhibitory activity against CV-B3 [8]: low inhibitory activity
EC50 [8]: 87.2 ± 10.8 µM
viral loads in tissues or organs (brain, heart, small intestine, liver, hind limb muscle, lung) [9]: significantly reduced
